The record followed here is US4485113A (priority 1979, dated 1984).

System in the first series: not listed separately
Description: in vivo. As to conditions: rat, po.
The compound `CSC(C)=NOC(=O)N(C)SC(C)(C)C#N` [X, 1-Methylthioacetaldehyde O-[N-methyl-N-(2-cyano-2-propanesulfenyl)carbamoyl]oxime] yielded an LD50 of 127 mg/kg.
As to `CN(SC(C)(C)CCl)C(=O)ON=C1SC(C)(C)C(=O)N1C` [XIII, 3,5,5-Trimethyl-2-[[O--[N--methyl-N--(2-chloromethyl-2-propanesulfenyl)carbamoyl]oximino]]-4-thiazolidinone], the median lethal dose (LD50) worked out at 343 mg/kg.
The compound `CN(SC(C)(C#N)CCl)C(=O)ON=C1SC(C)(C)C(=O)N1C` (centres unmarked) [XIX, 3,5,5-Trimethyl-2-[[O--[N--methyl-N--(1-chloro-2-cyano-2-propanesulfenyl)carbamoyl]oximino]]-4-thiazolidinone] came in with a median lethal dose (LD50) of 320 mg/kg.
In turn, `CC(=NOC(=O)N(C)SC(C)(C)C#N)SC(C)C` [XXIII, 1-Isopropylthioacetaldehyde O--[N--methyl-N--(2-cyano-2-propanesulfenyl)carbamoyl]oxime] gave a 50% lethal dose (LD50) of 20 mg/kg.
Consider `CC(=NOC(=O)N(C)SC(C)(C)C#N)SCCC#N` [XXIV, 1-(2-Cyanoethylthio)acetaldehyde O--[N--methyl-N--(2-cyano-2-propanesulfenyl)carbamoyl]oxime], for which the LD50 is 14.1 mg/kg.
`CC(=NOC(=O)N(C)SSC(C)(C)C#N)SC(C)C` [XXIX, 1-Isopropylthioacetaldehyde O--[N-- methyl-N--(2-cyano-2-propanethiosulfenyl)carbamoyl]oxime] returned an LD50 of 18 mg/kg.
In turn, `CN(SC(C)(C)C#N)C(=O)ON=C1CSCCS1` [XXVI, 2-[[O--[N--methyl-N--(2-cyano-2-propanesulfenyl)carbamoyl]oximino]]-1,4-dithiane] gave an LD50 of 40 mg/kg.
For `CC(=NOC(=O)N(C)SSC(C)(C)C#N)SCCC#N` [XXVIII, 1-(2-Cyanoethylthio)acetaldehyde O--[N--methyl-N--(2-cyano-2-propanethiosulfenyl)carbamoyl]oxime], the LD50 was 28 mg/kg.
`CSC(C)=NOC(=O)N(C)SSC(C)(C)C#N` [XXVII]: the 50% lethal dose (LD50) was 127 mg/kg.
The same measure, in the same setting: the result for `CN(SSC(C)(C)C#N)C(=O)ON=CC(C)(C)C#N` [XXXII, 2-Cyano-2-methylpropionaldehyde O--[N--methyl-N--(2-cyano-2-propanethiosulfenyl)carbamoyl]oxime] reads 14 mg/kg.
The compound `CC1OCSC1=NOC(=O)N(C)SSC(C)(C)C#N` (centres unmarked) [XXXIV, 5-Methyl-4-[[O--[N--methyl-N--(2-cyano-2-propanethiosulfenyl)carbamoyl]oximino]]-1,3-oxathiolane] gave an LD50 of 14 mg/kg.
Same read-out and setting: the result for `CN(SSC(C)(C)C#N)C(=O)ON=C1CSCCS1` [XXXV, 2-[[O--[N--methyl-N--(2-cyano-2-propanethiosulfenyl)carbamoyl]oximino]]-1,4-dithiane] reads 32 mg/kg.

The subject of a further series is rat.
Assay: not given
As to conditions: in vivo, po.
`CNC(=O)ON=C(C)SC` [Compound 1]: the “A.O. Rat. LD50” value turned out to be 49 mg/kg.
Take `CNC(=O)ON=C(C)SC(C)C` [Compound 3]: the “A.O. Rat. LD50” value was 8 mg/kg.

Broadly, the LD50 is the dose at which mortality reaches 50%.
